Results taken from patent publication US10961264B2, “Process for isolating a (thio)phosphoric acid derivative” (BASF SE, priority 2015, dated 2021).

Columns and labels:
[1] = as described in U.S. Pat. No. 8,513,460 B1; cited from earlier work
[2] = Solubility of the (thio)phosphoric acid derivative in process solvents; assay type: physicochemical

| SMILES | dissolution in toluene [1] | solubility in dichloromethane ([2]; dichloromethane, even at higher temperatures of 30° C. to 80° C.) | dissolution in dichloromethane in amounts comparable to NBPT ([2]; dichloromethane, same conditions as NBPT) | dissolution in ethyl acetate ([2]; ethyl acetate, upon moderate heating, precipitates again on cooling to room temperature) | solubility in aromatic solvents such as toluene ([2]; toluene, even at higher temperatures of 30° C. to 80° C.) | dissolution in toluene in amounts comparable to NBPT ([2]; toluene, same conditions as NBPT) | solubility in toluene ([2]; toluene, upon heating the product mixture (work-up of U.S. Pat. No. 8,513,460 B1)) |
| --- | --- | --- | --- | --- | --- | --- | --- |
| CCCCNP(N)(N)=S [NBPT, N-(n-butyl)thiophosphoric acid triamide] | can be dissolved | – | – | – | – | – | – |
| CCCNP(N)(N)=S [NPPT, N-(n-propyl)thiophosphoric acid triamide] | – | poor solubility | not possible to dissolve | can be dissolved to a large extent | poor solubility | not possible to dissolve | not sufficiently soluble |
